Measurements as given in paper PMC11676189, “Improving the Anti-Tumor Effect of Indoleamine 2,3-Dioxygenase Inhibitor CY1-4 by CY1-4 Nano-Skeleton Drug Delivery System” (Journal of Functional Biomaterials, 2024).
Values after ≈ are worked out from the molar mass of the structure shown. One block for each compound: values may come before it.

Key:
[1] = Solubility of CY1-4 (excess sample shaken in a 37 °C water bath for 48 h, HPLC); assay type: physicochemical; details: thermodynamic from solid
Experimental: The excess MSNM@CY1-4 was placed in deionized water and was shaken in a 37 °C water bath for 48 h. The supernatant was filtered after centrifugation at 10,000 rpm, and the filtrate was collected. The CY1-4 was measured using HPLC to calculate the solubility of CY1-4.

[2] = In vitro dissolution of CY1-4 in artificial gastric fluid (pH 1.2) and artificial intestinal fluid (pH 6.8); assay type: physicochemical
Experimental: MSNM@CY1-4 (equivalent to 3 mg of CY1-4) was dispersed in 600 mL artificial gastric fluid (pH 1.2 containing 0.1% (v/v) Tween-80) or 600 mL artificial intestinal fluid (pH 6.8 containing 0.1% (v/v) Tween-80) at 37 °C and 100 rpm. Samples were taken at 0, 2, 5, 12, 20, 40, and 60 min. Each sample was filtered through a 0.22 μm filter membrane and determined by HPLC.

[3] = design: method as in PMID 28053021; details: cited from earlier work
[4] = tested on: unresectable metastatic melanoma; details: combined with Keytruda vs Keytruda alone; phase III, 2018; cited from earlier work
[5] = tested on: recurrent malignant glioma; design: method as in PMID 32436060; details: up to 500 mg BID; patients with recurrent malignant glioma; cited from earlier work

solubility at 48 h ([1]; deionized water, water): < 100 µg/mL | solubility at 48 h ([1]; deionized water, water, 48 h): 1.16 ± 0.08 µg/mL (≈ 3.94 µM) | solubility at 48 h ([1]; pH 1.2 medium, pH 1.2, simulated gastric fluid, pH = 1.2): 1.36 ± 0.04 µg/mL (≈ 4.62 µM) | solubility at 48 h ([1]; pH 6.8 medium, pH 6.8, aqueous buffer, pH = 6.8): 1.19 ± 0.09 µg/mL (≈ 4.04 µM) | CY1-4 dissolved ([2]; artificial gastric fluid pH 1.2, 5 min): about 6% | CY1-4 dissolved after the 5 min maximum (decreased to) ([2]; artificial gastric fluid pH 1.2, after 5 min): about 1% | CY1-4 dissolved ([2]; artificial intestinal fluid pH 6.8, 5 min): about 4% | CY1-4 dissolved after the 5 min maximum (decreased to) ([2]; artificial intestinal fluid pH 6.8, after 5 min): about 1%
Compound: O=C1c2cc([N+](=O)[O-])ccc2-n2c1nc1ncccc1c2=O [CY1-4, 9-nitropyridine [2′,3′:4,5] pyrimido [1,2-α] indole-5,11-dione]

Compound: NS(=O)(=O)NCCNc1nonc1C(=NO)Nc1ccc(F)c(Br)c1 [Epacadostat]
Tolerability [3]: well tolerated | Inhibition of IDO1 activity ([3]; dose of ≥100 mg BID): could effectively inhibit the activity of IDO1 | Progression-free survival [4]: failed to significantly improve the progression-free survival

Compound: O=C1CC(c2c[nH]c3ccc(F)cc23)C(=O)N1 (stereo not drawn) [PF-06840003]
Tolerability [5]: generally well tolerated
